O=C(Nc1ccc(C(F)(F)F)cc1)c1ccc(-c2ncccc2Cl)cc1
melting point: 208.6 °C

O=C(Nc1ccc(C(F)(F)F)cc1)c1ccc(-c2ncccc2C(F)(F)F)cc1 [Example 1, N-(4-Trifluoromethyl-phenyl)-4-(3-trifluoromethyl-pyridin-2-yl)-benzamide]
melting point: 197.8 to 197.9 °C

From US20050165015A1, “Vanilloid receptor ligands and their use in treatments” (priority 2004, published 2005)
